Test [1] has as its target T1, human AR (Homo sapiens, UniProt P10275).
T1 sequence (P10275 1-920): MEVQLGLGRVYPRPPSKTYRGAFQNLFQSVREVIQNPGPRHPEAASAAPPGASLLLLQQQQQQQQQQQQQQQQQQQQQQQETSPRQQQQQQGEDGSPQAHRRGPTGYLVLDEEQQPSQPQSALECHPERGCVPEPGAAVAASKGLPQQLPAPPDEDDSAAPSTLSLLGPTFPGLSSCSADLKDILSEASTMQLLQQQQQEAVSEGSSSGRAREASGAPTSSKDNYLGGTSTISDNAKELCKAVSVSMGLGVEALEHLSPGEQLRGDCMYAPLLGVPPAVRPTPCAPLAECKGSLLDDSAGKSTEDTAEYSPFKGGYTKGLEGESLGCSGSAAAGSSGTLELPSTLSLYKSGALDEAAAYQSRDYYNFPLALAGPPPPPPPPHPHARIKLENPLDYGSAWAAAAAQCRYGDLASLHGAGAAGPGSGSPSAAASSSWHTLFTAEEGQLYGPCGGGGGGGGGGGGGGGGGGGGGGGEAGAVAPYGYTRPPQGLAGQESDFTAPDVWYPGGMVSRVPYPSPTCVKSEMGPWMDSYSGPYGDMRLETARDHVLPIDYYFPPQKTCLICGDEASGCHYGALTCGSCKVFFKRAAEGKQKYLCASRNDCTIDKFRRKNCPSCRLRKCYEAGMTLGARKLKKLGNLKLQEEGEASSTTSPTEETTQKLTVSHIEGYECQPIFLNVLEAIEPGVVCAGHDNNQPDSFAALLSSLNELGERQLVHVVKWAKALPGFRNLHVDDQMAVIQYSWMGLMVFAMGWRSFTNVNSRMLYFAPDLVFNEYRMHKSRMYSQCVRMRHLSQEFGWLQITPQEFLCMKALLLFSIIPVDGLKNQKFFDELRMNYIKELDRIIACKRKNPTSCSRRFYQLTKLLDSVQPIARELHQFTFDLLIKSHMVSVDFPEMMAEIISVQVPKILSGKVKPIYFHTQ
Put plainly: AR whole cell competitive binding assay (3H-DHT), transfected COS-1 cells. Also noted: expressed in transfected cells; transient transfection with pRShAR. The conditions noted are these: COS-1 cells, 1 nM 3H-DHT, Cheng-Prusoff from IC50; read-out: AR Binding Ki. Here is the method: AR Binding: For the whole cell binding assay, COS-1 cells in 96-well microtiter plates containing DMEM-10% FBS were transfected as described above with the following plasmid DNA: pRShAR (2 ng/well), pRS-β-Gal (50 ng/well) and pGEM (48 ng/well). Six hours after transfection, media was removed, the cells were washed with PBS and fresh media was added. The next day, the media was changed to DMEM-serum free to remove any endogenous ligand that might be complexed with the receptor in the cells.
Three replicates were used for each sample. […] The remaining media was removed, the cells were washed three times with PBS to remove unbound ligand and cells were lysed with a Triton X-100-based buffer.
For the saturation analyses, the difference between the total binding and the nonspecific binding, normalized by the β-Gal rate, was defined as specific binding. […] The Ki values were determined by application of the Cheng-Prusoff equation to the IC50 values, where: […]
After correcting for non-specific binding, IC50 values were determined. […] The IC50 value was determined graphically from a log-logit plot of the data. The Ki values were determined by application of the Cheng-Prusoff equation to the IC50 values, the labeled ligand concentration and the Kd of the labeled ligand.

Test [2] has as its target T1, human AR. Put plainly: Co-transfection assay, AR antagonist activity in presence of DHT, CV-1 cells. The format is cell-based. Also noted: expressed in transfected cells; host or cells: CV-1 cells (African green monkey kidney fibroblasts), transient transfection with pRShAR. The conditions noted are these: for AR Antagonist CV-1 Cells Efficacy (%): percent maximal inhibition, DHT at its EC50 concentration. An excerpt:
(§1) The co-transfection assay provides a method for identifying functional agonists and partial agonists which mimic, or antagonists which inhibit, the effect of native hormones and quantifying their activity for responsive IR proteins. In this regard, the co-transfection assay mimics an in vivo system in the laboratory. Importantly, activity in the co-transfection assay correlates very well with known in vivo activity, such that the co-transfection assay functions as a qualitative and quantitative predictor of a tested compounds in vivo pharmacology. See, e.g., T. Berger et al. 41 J. Steroid Biochem. Molec.
(§2) In the co-transfection assay, a cloned cDNA for an IR (e.g., human PR, AR or GR) under the control of a constitutive promoter (e.g., the SV 40 promoter) is introduced by transfection (a procedure to induce cells to take up foreign genes) into a background cell substantially devoid of endogenous IRs. This introduced gene directs the recipient cells to make the IR protein of interest. A second gene is also introduced (co-transfected) into the same cells in conjunction with the IR gene. This second gene, comprising the cDNA for a reporter protein, such as firefly luciferase (LUC), controlled by an appropriate hormone responsive promoter containing a hormone response element (HRE). This reporter plasmid functions as a reporter for the transcription-modulating activity of the target IR. Thus, the reporter acts as a surrogate for the products (mRNA then protein) normally expressed by a gene under control of the target receptor and its native hormone.
(§3) The co-transfection assay can detect small molecule agonists or antagonists of target IRs. Exposing the transfected cells to an agonist ligand compound increases reporter activity in the transfected cells. This activity can be conveniently measured, e.g., by increasing luciferase production, which reflects compound-dependent, IR-mediated increases in reporter transcription. […] To detect antagonists, the co-transfection assay is carried out in the presence of a constant concentration of an agonist to the target IR (e.g., progesterone for PR) known to induce a defined reporter signal. Increasing concentrations of a suspected antagonist will decrease the reporter signal (e.g., luciferase production). The co-transfection assay is therefore useful to detect both agonists and antagonists of specific IRs. Furthermore, it determines not only whether a compound interacts with a particular IR, but whether this interaction mimics (agonizes) or blocks (antagonizes) the effects of the native regulatory molecules on target gene expression, as well as the specificity and strength of this interaction.
(§4) CV-1 cells (African green monkey kidney fibroblasts) were cultured in the presence of Dulbecco's Modified Eagle Medium (DMEM) supplemented with 10% charcoal resin-stripped fetal bovine serum then transferred to 96-well microtiter plates one day prior to transfection.
(§5) The reporter plasmid, MTV-LUC, contains the cDNA for firefly luciferase (LUC) under control of the mouse mammary tumor virus (MTV) long terminal repeat, a conditional promoter containing an androgen response element. See e.g., Berger et al. supra. In addition, pRS-β-Gal, coding for constitutive expression of E. coli β-galactosidase (β-Gal), was included as an internal control for evaluation of transfection efficiency and compound toxicity.
(§6) Six hours after transfection, media was removed and the cells were washed with phosphate-buffered saline (PBS). […] Three to four replicates were used for each sample. Transfections and subsequent procedures were performed on a Biomek 1000 automated laboratory work station.
(§7) After 40 hours, the cells were washed with PBS, lysed with a Triton X-100-based buffer and assayed for LUC and β-Gal activities using a luminometer or spectrophotometer, respectively. For each replicate, the normalized response (NR) was calculated as: LUC response/β-Gal rate • where β-Gal rate=β-Gal·1×10^−5/β-Gal incubation time.

Test [3] deals with T1, human AR. Put plainly: Co-transfection assay, AR agonist activity, CV-1 cells. In kind it is cell-based. Also noted: expressed in transfected cells; host or cells: CV-1 cells (African green monkey kidney fibroblasts), transient transfection with pRShAR. To be noted: for AR Agonist CV-1 Cells Efficacy (%): percent maximal response relative to reference agonist DHT.
Text: as §1, §2, §3, §4, §5, §6, §7

Where [4] appears, read: CV-1 cells, antagonist potency or IC50, DHT at its EC50 concentration, read-out: AR Antagonist CV-1 Cells Potency.
The mark [5] stands for this setting: agonist potency or EC50, read-out: AR Agonist CV-1 Cells Potency.
The mark [6] stands for this setting: AR Antagonist CV-1 Cells Potency (nM), CV-1 cells, antagonist potency or IC50, DHT at its EC50 concentration.
[7] abbreviates: AR Agonist CV-1 Cells Potency (nM), agonist potency or EC50.

Where two headings read alike, the source gives them in different places.

For the molecule “5,6-Dimethyl-7-(2,2,2-trifluoroethyl)-4-trifluoromethyl-7H-pyrrolo[3,2-f]quinolin-2(1H)-one [Compound 150]”, on human AR [1], the Ki is 4 nM. Further, the IC50 at human AR [2] (setting [4]) is more than 10000 nM. The “AR Antagonist CV-1 Cells Efficacy (%)” value on human AR [2] (CV-1 cells) is “na (na = not active (i.e. efficacy of <20 and potency of >10,000))”. Moreover, the EC50 on human AR [3] (setting [5]) was 2.1 nM. Further, at human AR [3], the “AR Agonist CV-1 Cells Efficacy (%)” value was 95%.
“5-(2-Ethoxycarbonylethyl)-6-methyl-7-(2,2,2-trifluoroethyl)-4-trifluoromethyl-7H-pyrrolo[3,2-f]quinolin-2(1H)-one [Compound 162]”: the inhibition constant Ki on human AR [1] is 113 nM. Further, the IC50 at human AR [2] (setting [4]) was more than 10000 nM. The “AR Antagonist CV-1 Cells Efficacy (%)” value at human AR [2] (CV-1 cells) is “na (na = not active (i.e. efficacy of <20 and potency of >10,000))”. In addition, the EC50 at human AR [3] (setting [5]) is 20 nM. In addition, the “AR Agonist CV-1 Cells Efficacy (%)” value at human AR [3] is 71%.
Take “5-(4-Fluorophenyl)-6-methyl-7-(2,2,2-trifluoroethyl)-4-trifluoromethyl-7H-pyrrolo[3,2-f]quinolin-2(1H)-one [Compound 161]”: the inhibition constant (Ki) on human AR [1] was 30 nM. Also, the IC50 at human AR [2] (setting [4]) turned out to be 10 nM. Besides, the “AR Antagonist CV-1 Cells Efficacy (%)” value on human AR [2] (CV-1 cells) was 66%. Besides, the EC50 at human AR [3] (setting [5]) is 238 nM. In addition, the “AR Agonist CV-1 Cells Efficacy (%)” value at human AR [3] stood at 27%.
With “6,7-Dihydro-8,8,10-trimethyl-4-(trifluoromethyl)-8H-pyrano[3,2-g]quinolin-2(1H)-one [Compound 206]”, the IC50 on human AR [2] (setting [4]) is 175 nM. Moreover, the “AR Antagonist CV-1 Cells Efficacy (%)” value at human AR [2] (CV-1 cells) is recorded as 90%. For the same molecule, on human AR [3] (setting [5]), the EC50 was more than 10000 nM. Also, the “AR Agonist CV-1 Cells Efficacy (%)” value at human AR [3] is “na (na = not active (i.e. efficacy of <20 and potency of >10,000))”.
As to “6,7-Dihydro-8,8-dimethyl-4-(trifluoromethyl)-8H-pyrano[3,2-g]quinolin-2(1H)-one [Compound 202]”, the IC50 at human AR [2] (setting [4]) was determined as 146 nM. Further, the “AR Antagonist CV-1 Cells Efficacy (%)” value on human AR [2] (CV-1 cells) worked out at 92%. Further, the EC50 on human AR [3] (setting [5]) is more than 10000 nM. For the same molecule, the “AR Agonist CV-1 Cells Efficacy (%)” value on human AR [3] was “na (na = not active (i.e. efficacy of <20 and potency of >10,000))”.
Turning to “6-Ethyl-5-methyl-7-(2,2,2-trifluoroethyl)-4-trifluoromethyl-7H-pyrrolo[3,2-f]quinolin-2(1H)-one [Compound 153]”, the IC50 at human AR [2] (setting [4]) is more than 10000 nM. In addition, on human AR [2] (CV-1 cells), the “AR Antagonist CV-1 Cells Efficacy (%)” value was “na (na = not active (i.e. efficacy of <20 and potency of >10,000))”. Moreover, the EC50 at human AR [3] (setting [5]) stood at 7.6 nM. Moreover, the “AR Agonist CV-1 Cells Efficacy (%)” value on human AR [3] stood at 76%.
Consider `CC(C)C1c2c(ccc3[nH]c(=O)cc(C(F)(F)F)c23)N(CC(F)(F)F)C1C` (racemic) [Compound 144, (±)-5,6-cis-Dihydro-5-isopropyl-6-methyl-7-(2,2,2-trifluoroethyl)-4-trifluoromethyl-7H-pyrrolo[3,2-f]quinolin-2(1H)-one], for which the IC50 on human AR [2] (setting [6]) is 23 nM. In addition, on human AR [2] (CV-1 cells), the “AR Antagonist CV-1 Cells Efficacy (%)” value was 53%. At human AR [3] (setting [7]), this molecule returned an EC50 of more than 10000 nM. Further, on human AR [3], the “AR Agonist CV-1 Cells Efficacy (%)” value is “na (na = not active (i.e. efficacy of <20 and potency of >10,000))”.
Take `CCC1CCOc2cc3c(cc21)c(C(F)(F)F)cc(=O)n3C` (racemic) [Compound 220, (±)-6,7-Dihydro-6-ethyl-4-trifluoromethyl-1-methyl-8H-pyrano[3,2-g]quinolin-2(1H)-one]: the IC50 at human AR [2] (setting [6]) was determined as 23 nM. Further, the “AR Antagonist CV-1 Cells Efficacy (%)” value at human AR [2] (CV-1 cells) is 67%. On human AR [3] (setting [7]), the EC50 is more than 10000 nM. Besides, on human AR [3], the “AR Agonist CV-1 Cells Efficacy (%)” value was “na (na = not active (i.e. efficacy of <20 and potency of >10,000))”.
As to `CCc1c(C)c2cc3[nH]c(=O)cc(C(F)(F)F)c3cc2n1CC(F)(F)F` [Compound 163, 7-Ethyl-8-methyl-6-(2,2,2-trifluoroethyl)-4-trifluoromethyl-6H-pyrrolo[2,3-g]quinolin-2(1H)-one], the IC50 at human AR [2] (setting [6]) amounted to 8.2 nM. Further, the “AR Antagonist CV-1 Cells Efficacy (%)” value on human AR [2] (CV-1 cells) turned out to be 37%. At human AR [3] (setting [7]), this molecule gave an EC50 of more than 10000 nM. Also, the “AR Agonist CV-1 Cells Efficacy (%)” value on human AR [3] was “na (na = not active (i.e. efficacy of <20 and potency of >10,000))”.
For the molecule `CC1CC(C)(C)N(CC(F)(F)F)c2ccc3[nH]c(=O)ccc3c21` (stereo not shown) [Compound 182, 8-(2,2,2-Trifluoroethyl)-5,6,7,8-tetrahydro-5,7,7-trimethylpyrido[3,2-f]quinolin-2(1H)-one], at human AR [2], the IC50 worked out at 13 nM. The “AR Antagonist CV-1 Cells Efficacy (%)” value on human AR [2] (CV-1 cells) is given as 81%. Also, on human AR [3], the “AR Agonist CV-1 Cells Efficacy (%)” value was “na (na = not active (i.e. efficacy of <20 and potency of >10,000))”.
In the case of “(−)-6,7-Dihydro-6-ethyl-4-trifluoromethyl-8H-pyrano[3,2-g]quinolin-2(1H)-one [Compound 217]”, the IC50 on human AR [2] (setting [4]) worked out at 64 nM. The “AR Antagonist CV-1 Cells Efficacy (%)” value on human AR [2] (CV-1 cells) is listed as 85%. Further, the EC50 on human AR [3] (setting [5]) was more than 10000 nM. In addition, the “AR Agonist CV-1 Cells Efficacy (%)” value on human AR [3] is “na (na = not active (i.e. efficacy of <20 and potency of >10,000))”.
